Experimental data published in US20210122730A1, “GLUCOCORTICOID RECEPTOR MODULATORS” (ORIC Pharmaceuticals, Inc., priority 2017, published 2021).

Columns and labels:
GR = target: T1, GR (Homo sapiens, UniProt P04150); assay: In Vitro GR Luciferase Reporter Assay (antagonist mode, CHO-K1-GR-MMTV-Luc reporter cells); assay type: cell-based; conditions: antagonist mode, 10 nM Dexamethasone
T1 construct: expressed in transfected cells; host or cells: CHO-K1
T1 sequence (P04150 1-777): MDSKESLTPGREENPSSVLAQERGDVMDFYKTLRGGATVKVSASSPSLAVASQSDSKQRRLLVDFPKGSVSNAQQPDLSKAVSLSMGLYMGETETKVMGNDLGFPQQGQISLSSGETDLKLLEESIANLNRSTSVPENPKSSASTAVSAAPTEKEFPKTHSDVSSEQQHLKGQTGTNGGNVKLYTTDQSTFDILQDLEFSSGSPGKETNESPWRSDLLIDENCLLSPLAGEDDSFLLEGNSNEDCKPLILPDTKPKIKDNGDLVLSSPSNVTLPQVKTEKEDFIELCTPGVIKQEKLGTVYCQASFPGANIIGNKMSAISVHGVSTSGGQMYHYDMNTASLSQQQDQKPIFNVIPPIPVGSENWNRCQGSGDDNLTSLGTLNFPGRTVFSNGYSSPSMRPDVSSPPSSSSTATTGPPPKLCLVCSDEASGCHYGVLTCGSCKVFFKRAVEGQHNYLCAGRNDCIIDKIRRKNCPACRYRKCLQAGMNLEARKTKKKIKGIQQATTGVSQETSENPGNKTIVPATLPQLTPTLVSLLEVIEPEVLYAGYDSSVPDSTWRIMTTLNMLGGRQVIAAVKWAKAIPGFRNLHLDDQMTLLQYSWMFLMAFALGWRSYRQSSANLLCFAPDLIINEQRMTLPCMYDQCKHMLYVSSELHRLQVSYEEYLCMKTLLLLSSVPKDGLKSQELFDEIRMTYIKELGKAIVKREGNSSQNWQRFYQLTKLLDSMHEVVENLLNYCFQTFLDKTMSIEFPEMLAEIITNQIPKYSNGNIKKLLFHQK
How it was run: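 CHO-K1-GR-MMTV-Luc cells in phenol red-free DMEM with 10% CSS, stimulated with 10 nM dexamethasone (final) and treated with 8-point 1:5 compound dilutions for about 18-24 h at 37° C. Luciferase measured by OneGlo luminescence; IC50 derived for inhibition of GR activity.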

CYP2C8 = target: T2, CYP2C8 (Homo sapiens, UniProt P10632); assay: CYP Inhibition Assay (CYP2C8, human liver microsomes, paclitaxel substrate); assay type: in vitro ADME; conditions: pH 7.4; pooled human liver microsomes 0.1 mg/mL, probe substrate paclitaxel
T2 construct: Pooled human microsomes were obtained from Sekisui XenoTech, KS; tissue Sekisui XenoTech, KS; host or cells: pooled human liver microsomes
T2 sequence (P10632 1-490): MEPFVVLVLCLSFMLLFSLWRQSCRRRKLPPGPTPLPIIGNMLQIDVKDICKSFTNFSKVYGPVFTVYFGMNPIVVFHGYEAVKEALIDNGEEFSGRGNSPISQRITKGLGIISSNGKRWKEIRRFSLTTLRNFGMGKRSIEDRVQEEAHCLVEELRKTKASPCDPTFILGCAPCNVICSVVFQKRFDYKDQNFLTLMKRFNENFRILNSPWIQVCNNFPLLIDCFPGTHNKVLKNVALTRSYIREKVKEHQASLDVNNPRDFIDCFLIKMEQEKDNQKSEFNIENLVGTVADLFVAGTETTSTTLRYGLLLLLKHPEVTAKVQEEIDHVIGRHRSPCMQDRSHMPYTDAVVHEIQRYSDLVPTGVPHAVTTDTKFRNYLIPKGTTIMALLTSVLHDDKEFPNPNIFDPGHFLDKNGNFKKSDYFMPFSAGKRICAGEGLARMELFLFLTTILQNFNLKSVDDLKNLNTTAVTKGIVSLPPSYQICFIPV
How it was run: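 Pooled human liver microsomes (0.1 mg/mL) in 50 mM potassium phosphate pH 7.4 with compound, started with 1 mM NADPH, 5 min at 37° C, duplicate.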

| Compound | IC50 (GR) [µM] | inhibition at 5 min (CYP2C8) [%] |
| --- | --- | --- |
| Cn1cnc(S(=O)(=O)N(C2CC(F)(F)C2)[C@H]2CCC3=Cc4c(cnn4-c4ccc(F)cc4)C[C@]3(C(=O)c3cc(C(F)(F)F)ccn3)C2)c1 [Example 325, N-(3,3-difluorocyclobutyl)-N-((4aS,6S)-1-(4-fluorophenyl)-4a-(4-(trifluoromethyl)picolinoyl)-4,4a,5,6,7,8-hexahydro-1H-benzo[f]indazol-6-yl)-1-methyl-1H-imidazole-4-sulfonamide] | ≤ 0.1 | ≤ 25 |
| Cn1ccc(S(=O)(=O)N([C@H]2CCC3=Cc4c(cnn4-c4ccc(F)cc4)C[C@]3(C(=O)c3ncc(C(F)(F)F)s3)C2)[C@H]2C[C@](C)(O)C2)n1 [Example 326, N-((4aS,6S)-1-(4-fluorophenyl)-4a-(5-(trifluoromethyl)thiazole-2-carbonyl)-4,4a,5,6,7,8-hexahydro-1H-benzo[f]indazol-6-yl)-N-((1r,3S)-3-hydroxy-3-methylcyclobutyl)-1-methyl-1H-pyrazole-3-sulfonamide] | ≤ 0.1 | 50 to 75 |
| CC(C)N([C@H]1CCC2=Cc3c(cnn3-c3ccc(F)cc3)C[C@]2(C(=O)c2ncc(C(F)(F)F)s2)C1)S(=O)(=O)c1ncn(C)n1 [Example 327, N-((4aS,6S)-1-(4-fluorophenyl)-4a-(5-(trifluoromethyl)thiazole-2-carbonyl)-4,4a,5,6,7,8-hexahydro-1H-benzo[f]indazol-6-yl)-N-isopropyl-1-methyl-1H-1,2,4-triazole-3-sulfonamide] | ≤ 0.1 | 25 to 50 |
| CC(C)N([C@H]1CCC2=Cc3c(cnn3-c3ccc(F)cc3)C[C@]2(C(=O)c2cc(C(F)(F)F)ccn2)C1)S(=O)(=O)c1ncn(C)n1 [Example 328, N-((4aS,6S)-1-(4-fluorophenyl)-4a-(4-(trifluoromethyl)picolinoyl)-4,4a,5,6,7,8-hexahydro-1H-benzo[f]indazol-6-yl)-N-isopropyl-1-methyl-1H-1,2,4-triazole-3-sulfonamide] | ≤ 0.1 | 25 to 50 |
| Cn1cnc(S(=O)(=O)N(C2CC(F)(F)C2)[C@H]2CCC3=Cc4c(cnn4-c4ccc(F)cc4)C[C@]3(C(=O)c3cc(C(F)(F)F)ccn3)C2)n1 [Example 329, N-(3,3-difluorocyclobutyl)-N-((4aS,6S)-1-(4-fluorophenyl)-4a-(4-(trifluoromethyl)picolinoyl)-4,4a,5,6,7,8-hexahydro-1H-benzo[f]indazol-6-yl)-1-methyl-1H-1,2,4-triazole-3-sulfonamide] | ≤ 0.1 | 25 to 50 |
| Cn1cnc(S(=O)(=O)N(CC(F)F)[C@H]2CCC3=Cc4c(cnn4-c4ccc(F)cc4)C[C@]3(C(=O)c3cc(C(F)(F)F)ccn3)C2)n1 [Example 330, N-(2,2-difluoroethyl)-N-((4aS,6S)-1-(4-fluorophenyl)-4a-(4-(trifluoromethyl)picolinoyl)-4,4a,5,6,7,8-hexahydro-1H-benzo[f]indazol-6-yl)-1-methyl-1H-1,2,4-triazole-3-sulfonamide] | ≤ 0.1 | 25 to 50 |
| Cn1cnc(S(=O)(=O)N(CC(F)F)[C@H]2CCC3=Cc4c(cnn4-c4ccc(F)cc4)C[C@]3(C(=O)c3ncc(C(F)(F)F)s3)C2)n1 [Example 331, N-(2,2-difluoroethyl)-N-((4aS,6S)-1-(4-fluorophenyl)-4a-(5-(trifluoromethyl)thiazole-2-carbonyl)-4,4a,5,6,7,8-hexahydro-1H-benzo[f]indazol-6-yl)-1-methyl-1H-1,2,4-triazole-3-sulfonamide] | ≤ 0.1 | ≤ 25 |
| Cn1cnc(S(=O)(=O)N(C2CC(F)(F)C2)[C@H]2CCC3=Cc4c(cnn4-c4ccc(F)cc4)C[C@]3(C(=O)c3ncc(C(F)(F)F)s3)C2)c1 [Example 332, N-(3,3-difluorocyclobutyl)-N-((4aS,6S)-1-(4-fluorophenyl)-4a-(5-(trifluoromethyl)thiazole-2-carbonyl)-4,4a,5,6,7,8-hexahydro-1H-benzo[f]indazol-6-yl)-1-methyl-1H-imidazole-4-sulfonamide] | ≤ 0.1 | ≤ 25 |
| O=C(c1ncc(C(F)(F)F)s1)[C@]12Cc3cnn(-c4ccc(F)cc4)c3C=C1CC[C@H](N(C1CC1)S(=O)(=O)c1ccc(Cl)cn1)C2 [Example 333, 5-chloro-N-cyclopropyl-N-((4aS,6S)-1-(4-fluorophenyl)-4a-(5-(trifluoromethyl)thiazole-2-carbonyl)-4,4a,5,6,7,8-hexahydro-1H-benzo[f]indazol-6-yl)pyridine-2-sulfonamide] | ≤ 0.1 | ≤ 25 |
| O=C(c1cc(C(F)(F)F)ccn1)[C@]12Cc3cnn(-c4ccc(F)cc4)c3C=C1CC[C@H](N(C1CC1)S(=O)(=O)c1cncc(Cl)c1)C2 [Example 334, 5-chloro-N-cyclopropyl-N-((4aS,6S)-1-(4-fluorophenyl)-4a-(4-(trifluoromethyl)picolinoyl)-4,4a,5,6,7,8-hexahydro-1H-benzo[f]indazol-6-yl)pyridine-3-sulfonamide] | ≤ 0.1 | 50 to 75 |
| Cn1cnc(S(=O)(=O)N(C2CC(F)(F)C2)[C@H]2CCC3=Cc4c(cnn4-c4ccc(F)cc4)C[C@]3(C(=O)c3cc(F)ccn3)C2)c1 [Example 335, N-(3,3-difluorocyclobutyl)-N-((4aS,6S)-1-(4-fluorophenyl)-4a-(4-fluoropicolinoyl)-4,4a,5,6,7,8-hexahydro-1H-benzo[f]indazol-6-yl)-1-methyl-1H-imidazole-4-sulfonamide] | ≤ 0.1 | ≤ 25 |
| Cn1ccc(S(=O)(=O)N(CC(F)F)[C@H]2CCC3=Cc4c(cnn4-c4ccc(F)cc4)C[C@]3(C(=O)c3ncc(C(F)(F)F)s3)C2)n1 [Example 337, N-(2,2-difluoroethyl)-N-((4aS,6S)-1-(4-fluorophenyl)-4a-(5-(trifluoromethyl)thiazole-2-carbonyl)-4,4a,5,6,7,8-hexahydro-1H-benzo[f]indazol-6-yl)-1-methyl-1H-pyrazole-3-sulfonamide] | ≤ 0.1 | 50 to 75 |
| Cn1ccc(S(=O)(=O)N(CC(F)F)[C@H]2CCC3=Cc4c(cnn4-c4ccc(F)cc4)C[C@]3(C(=O)c3cc(F)ccn3)C2)n1 [Example 338, N-(2,2-difluoroethyl)-N-((4aS,6S)-1-(4-fluorophenyl)-4a-(4-fluoropicolinoyl)-4,4a,5,6,7,8-hexahydro-1H-benzo[f]indazol-6-yl)-1-methyl-1H-pyrazole-3-sulfonamide] | ≤ 0.1 | 75 to 90 |
| Cn1cnc(S(=O)(=O)N(C2CC(F)(F)C2)[C@H]2CCC3=Cc4c(cnn4-c4ccc(F)cc4)C[C@]3(C(=O)c3cc(Cl)ccn3)C2)c1 [Example 339, N-((4aS,6S)-4a-(4-chloropicolinoyl)-1-(4-fluorophenyl)-4,4a,5,6,7,8-hexahydro-1H-benzo[f]indazol-6-yl)-N-(3,3-difluorocyclobutyl)-1-methyl-1H-imidazole-4-sulfonamide] | ≤ 0.1 | 25 to 50 |
| O=C(c1cc(C(F)(F)F)ccn1)[C@]12Cc3cnn(-c4ccc(F)cc4)c3C=C1CC[C@H](N(CC(F)F)S(=O)(=O)c1ccc(Cl)nc1)C2 [Example 341, 6-chloro-N-(2,2-difluoroethyl)-N-((4aS,6S)-1-(4-fluorophenyl)-4a-(4-(trifluoromethyl)picolinoyl)-4,4a,5,6,7,8-hexahydro-1H-benzo[f]indazol-6-yl)pyridine-3-sulfonamide] | ≤ 0.1 | 25 to 50 |
| CO[C@]1(C)C[C@H](N([C@H]2CCC3=Cc4c(cnn4-c4ccc(F)cc4)C[C@]3(C(=O)c3ncc(C(F)(F)F)s3)C2)S(=O)(=O)c2ccn(C)n2)C1 [Example 342, N-((4aS,6S)-1-(4-fluorophenyl)-4a-(5-(trifluoromethyl)thiazole-2-carbonyl)-4,4a,5,6,7,8-hexahydro-1H-benzo[f]indazol-6-yl)-N-((1s,3R)-3-methoxy-3-methylcyclobutyl)-1-methyl-1H-pyrazole-3-sulfonamide] | ≤ 0.1 | 25 to 50 |
